Assay results taken from US20230123334A1, “AMINO LIPID COMPOUND, PREPARATION METHOD THEREFOR, AND APPLICATION THEREOF” (SHENZHEN SHENXIN BIOTECHNOLOGY CO., LTD., priority 2020, published 2023).

Test system: HEK293 cells
Assay: Preliminary screening as DNA vectors, GFP transfection of HEK293 cells
Assay type: cell-based
Conditions: amino lipid/DOPE liposome with 75 ng plasmid DNA (psin-EGFP-IRES-Puro); number of GFP-expressing cells divided by total nuclei (Hoechst)
Procedure, shortened: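 HEK293 cells in DMEM/10% FBS transfected with 75 ng EGFP plasmid per well complexed with amino lipid/DOPE liposomes in pH 5.6 sodium acetate. Hoechst nuclear stain added 20-24 h post-transfection, then cells cultured another 20-24 h. Confocal imaging gives GFP-positive cells as % of total nuclei.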

Compound	Absolute DNA transfection efficiency in HEK293 cells [%]
CCCCCCCCCCCCCCCNc1nc(NCCCN2CCN(C)CC2)nc(SCCCCCCCCCCC)n1 [S11N15 D9]	7.0
CCCCCCCCCCCNc1nc(NCCN2CCN(C)CC2)nc(SCCCCCCCC)n1 [S8N11 D5]	52.7
CCCCCCCCCCCCCCSc1nc(NCCCCCCCC)nc(NCCCN2CCN(C)CC2)n1 [S14N8 D9]	15.7
CCCCCCCCCCCCCCCCCCSc1nc(NCCCCCCCCCCCC)nc(NCCN2CCN(C)CC2)n1 [S18N12 D5]	1.0
CCCCCCCCSc1nc(NCC2CCN(C)CC2)nc(SCCCCCCC)n1 [S7S8 D10]	0.0
CCCCCCCCCCCCCCCCCCNc1nc(NCCN(CC)CC)nc(SCCCCCCCCCCCC)n1 [S12N18 D7]	0.3
CCCCCCCCCCCCCCCCNc1nc(NCCN(CC)CC)nc(SCCCCCCCCC)n1 [S9N16 D7]	6.4
CCCCCCCCCCCCCCCCSc1nc(NCCCCCCCCCCCCC)nc(NCCCN2CCN(C)CC2)n1 [S16N13 D9]	5.7
CCCCCCCCCCSc1nc(NCCCCCCCCC)nc(NCCN(CC)CC)n1 [S10N9 D7]	6.9
CCCCCCCCCCCCCCCNc1nc(NCCN2CCOCC2)nc(SCCCCCCCCC)n1 [S9N15 D2]	7.3
CCCCCCCCCCCCNc1nc(NCCN(CC)CC)nc(SCCCCCCC)n1 [S7N12 D7]	5.5
CCCCCCCSc1nc(NCCN2CCN(C)CC2)nc(SCCCCCCC)n1 [S7S7 D5]	4.8
CCCCCCCCCCCCCCCCCCSc1nc(NCCCCCCCCCCC)nc(NCCN2CCOCC2)n1 [S18N11 D2]	1.4
CCCCCCCCCCCCCCSc1nc(NCC2CCN(C)CC2)nc(SCCCCCCC)n1 [S7S14 D10]	26.7
CCCCCCCCCCCSc1nc(NCCCCCCCC)nc(NCCN2CCCC2)n1 [S11N8 D3]	26.0
CCCCCCCCCCCCCCCCCCNc1nc(NCC2CCN(C)CC2)nc(SCCCCCCCCCCCCCCCCCC)n1 [S18N18 D10]	0.0
CCCCCCCCCCCCCCCCNc1nc(NCCCN(C)C)nc(SCCCCCCCCCCCCCC)n1 [S14N16 D6]	0.8
CCCCCCCCCCCCCCCSc1nc(NCCN2CCN(C)CC2)nc(N(CCCCCCCCCCCC)CCCCCCCCCCCC)n1 [S15^2N12 D5]	0.7
CCCCCCCCCCCCCCCCSc1nc(NCC2CCN(C)CC2)nc(SCCCCCCC)n1 [S7S16 D10]	22.2
CCCCCCCCNc1nc(NCCN2CCCCC2)nc(SCCCCCCC)n1 [S7N8 D4]	15.5
CCCCCCCCCCCNc1nc(NCCN2CCOCC2)nc(SCCCCCCCCC)n1 [S9N11 D2]	16.2
CCCCCCCCCCCCCCCSc1nc(NCCCCCCCCCCCCC)nc(NCCN2CCN(C)CC2)n1 [S15N13 D5]	1.9
CCCCCCCCCCCCCCCSc1nc(NCCCCCCCC)nc(NCCN2CCN(C)CC2)n1 [S15N8 D5]	17.3
CCCCCCCCCCSc1nc(NCC2CCN(C)CC2)nc(SCCCCCC)n1 [S6S10 D10]	14.9
CCCCCCCCCCCCCCCCNc1nc(NCCN2CCCC2)nc(SCCCCCCCCC)n1 [S9N16 D3]	31.3
CCCCCCCCCCCCCCCCNc1nc(NCCCN2CCN(C)CC2)nc(SCCCCCCCCCCCC)n1 [S12N16 D9]	0.4
CCCCCCCCCCCCCCSc1nc(NCCCCCCCCC)nc(NCCN2CCCC2)n1 [S14N9 D3]	30.7
CCCCCCCSc1nc(NCCN2CCOCC2)nc(SCCCCCCC)n1 [S7S7 D2]	2.2
CCCCCCCCSc1nc(NCCN2CCCC2)nc(SCCCCCCCC)n1 [S8S8 D3]	10.4
